Earlier results on 4 compounds are cited in patent publication US20120021048A1, “Combination Dosage Compositions Comprising a Cholesterol-Lowering Agent, a Renin-Angiotensin System Inhibitor, an Antioxidant Agent and an Antiplatelet Agent for Treatment and Prevention of Cardiovascular Disease” (Nucitec S.A. de C.V., priority 2010, published 2012).

The conditions of series [1]: expected value, single agent at polypill dose, cited from earlier work.
For series [2] the following is noted: expected value; doses of polypill (atorvastatin 20 mg, lycopene 30 mg); cited from earlier work.
The subject of a further series is macrophages. The settings on record: lycopene added to macrophages in cell culture; cited from earlier work.
The conditions of series [3]: in vivo pure lycopene supplementation; cited from earlier work.

Read-outs that look alike come from different tables or passages of the source.

In the case of `CCOC(=O)[C@H](CCc1ccccc1)N[C@@H](C)C(=O)N1[C@H](C(=O)O)C[C@@H]2CCC[C@@H]21` [Ramipril], the “% reduction in risk of Ischaemic heart disease” value (shortened to “% reduction in risk”) in series [1] was ~25%.
Turning to `CC(C)c1c(C(=O)Nc2ccccc2)c(-c2ccccc2)c(-c2ccc(F)cc2)n1CC[C@@H](O)C[C@@H](O)CC(=O)O` [Atorvastatin], the “% reduction in risk” value in series [1] was 61%; in series [1] (listed as atorvastatin) it was “about 61%”. Also, the “Reduction in concentration (LDL-cholesterol)” value in series [2] is 70 mg/dL.
For `CC(C)=CCC/C(C)=C/C=C/C(C)=C/C=C/C(C)=C/C=C/C=C(C)/C=C/C=C(C)/C=C/C=C(\C)CCC=C(C)C` [Lycopene], the “suppression of cellular cholesterol synthesis” value with macrophages was “approximately 40%”. The “reduction of plasma LDL cholesterol concentration” value in series [3] was 14%. In addition, the “% reduction in risk” value in series [1] is given as ~20%. For the same compound, the “Reduction in concentration (LDL-cholesterol)” value in series [2] was 14 to 20 mg/dL.
Turning to `CC(=O)Oc1ccccc1C(=O)O` [Acetylsalicylic Acid], the “% reduction in risk” value in series [1] was 32%; in series [1] (listed as acetylsalicylic acid), “about 32%”.
